Patent US10703764B2, “Benzopiperazine compositions as BET bromodomain inhibitors” (FORMA Therapeutics, Inc., priority 2013, dated 2020)

Assays:
BRD4 BD1 = target: T1, BRD4 BD1 (Homo sapiens, UniProt O60885); experiment: AlphaScreen binding assay, BRD4 Bromodomain 1
T1 construct: made in house
Outline: (§1)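 An AlphaScreen competition format was used with His-BRD4 BD1 or BD2 and biotin-H4 K5/8/12/16-acetyl peptide, each at matched final levels of 50 nM (BD1) or 100 nM (BD2). Incubation in HEPES/NaCl buffer with 0.1% BSA and 0.01% Triton X-100 ran ≥1 h before IC50 determination.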

BRD4 BD2 = target: T2, BRD4 BD2 (Homo sapiens, UniProt O60885); experiment: AlphaScreen binding assay, BRD4 Bromodomain 2
T2 construct: made in house
Outline: as §1

MV4-11 cells = experiment: Oncology cell growth assay (3-day proliferation, CellTiter-Glo); format: cell-based; details: Homo sapiens, MV4-11, 72 h, AML cell line MV4-11, 72 hours, compounds grouped by IC50 range, read-out: MV4-11 IC50 (inhibition of proliferation, gIC50)
Outline: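 Compounds were serially diluted 3-fold in DMSO, giving final well concentrations from 10 down to 0.0045 μM. MV4-11 cells were then seeded at 3000 cells/well in RPMI 1640 with 10% FBS and incubated 72 hours. CellTiter-Glo signal was measured and gIC50 obtained by four-parameter logistic regression.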

Structure (SMILES) | IC50 (BRD4 BD1) [nM] | IC50 (BRD4 BD2) [nM] | IC50 (MV4-11 cells) [nM]
CC(=O)N1c2ccc(-c3ccc(S(C)(=O)=O)cc3)cc2N(C(=O)Oc2ccc(C)cc2)C[C@@H]1C [Example I-232] | 100 to 1000 | 50 to 500 | < 100
CC(C)OC(=O)N1C[C@H](C)N(C(=O)C2CC2)c2ccc(-c3cnn(CC4(C)COC4)c3)cc21 [Example I-620] | 100 to 1000 | 50 to 500 | 100 to 500
COc1ccc(-c2ccc3c(c2)N(C(=O)C2CCC2)C[C@H](C)N3C(C)=O)cc1N1CCCS1(=O)=O [Example I-1168] | 100 to 1000 | 50 to 500 | 100 to 500
CC(=O)N1c2ccc(-c3ccc(C(=O)N(C)c4ccccn4)cc3)cc2N(C(=O)OC(C)C)C[C@@H]1C [Example I-552] | 100 to 1000 | 50 to 500 | 100 to 500
COC(=O)N1c2ccc(-c3cnn(Cc4c[nH]cn4)c3)cc2N(C(=O)OC(C)C)CC1C (stereo not drawn) [Example I-631] | 100 to 1000 | 50 to 500 | > 500
CC(=O)N1c2ccc(-c3cc(N4CCCS4(=O)=O)cc(C(F)(F)F)c3)cc2N(C(=O)OC(C)C)C[C@@H]1C [Example I-1166] | 100 to 1000 | 50 to 500 | > 500
CC(=O)N1c2ccc(-c3ccc(C(=O)N4CCC[C@@H]4CN)cc3)cc2N(C(=O)OC(C)C)C[C@@H]1C [Example I-592] | 100 to 1000 | 50 to 500 | 100 to 500
CC(C)OC(=O)N1C[C@H](C)N(C(=O)C2CC2)c2ccc(-c3cnn(CCn4ccnc4)c3)cc21 [Example I-612] | 100 to 1000 | 50 to 500 | > 500
COC(=O)N1c2ccc(-c3cnn(C4CC4)c3)cc2N(C(=O)OC2CCC2)C[C@@H]1C [Example I-1005] | 100 to 1000 | 50 to 500 | 100 to 500
CNS(=O)(=O)c1cccc(-c2ccc3c(c2)N(C(=O)C2CCC2)C[C@H](C)N3C(C)=O)c1 [Example I-1105] | 1000 to 10000 | 50 to 500 | > 500
COC(=O)N1c2ccc(-c3cnn(CC4(C)COC4)c3)cc2N(C(=O)OC(C)C)C[C@@H]1C [Example I-637] | 100 to 1000 | 50 to 500 | 100 to 500
CC(=O)N1c2ccc(-c3cnn(CC(=O)O)c3)cc2N(C(=O)OC(C)C)C[C@@H]1C [Example I-130, (S)-2-(4-(1-acetyl-4-(isopropoxycarbonyl)-2-methyl-1,2,3,4-tetrahydroquinoxalin-6-yl)-1H-pyrazol-1-yl)acetic acid] | 100 to 1000 | 50 to 500 | > 500
CC(=O)N1c2ccc(-c3cnn(C4COC4)c3)cc2N(C(=O)OC(CF)CF)C[C@@H]1C [Example I-72, (S)-1,3-difluoropropan-2-yl 4-acetyl-3-methyl-7-(1-(oxetan-3-yl)-1H-pyrazol-4-yl)-3,4-dihydroquinoxaline-1(2H)-carboxylate] | 100 to 1000 | < 50 | 100 to 500
CC(=O)N1c2ccc(-c3cnn(C4CCCS(=O)(=O)C4)c3)cc2N(C(=O)OC2CC(F)(F)C2)C[C@@H]1C (stereo partly drawn) [Example I-162, 3,3-difluorocyclobutyl (3S)-4-acetyl-7-[1-(1,1-dioxo-1λ^6-thian-3-yl)-1H-pyrazol-4-yl]-3-methyl-1,2,3,4-tetrahydroquinoxaline-1-carboxylate] | 100 to 1000 | 50 to 500 | 100 to 500
CC(=O)N1c2ccc(-c3cnn(C4CC4)c3)cc2N(C(=O)OCCC(F)(F)F)C[C@@H]1C [Example I-78, (S)-3,3,3-trifluoropropyl 4-acetyl-7-(1-cyclopropyl-1H-pyrazol-4-yl)-3-methyl-3,4-dihydroquinoxaline-1(2H)-carboxylate] | 100 to 1000 | 50 to 500 | 100 to 500
CC(=O)N1c2ccc(-c3ccc(S(N)(=O)=O)cc3)cc2N(C(=O)C2CCC2)C[C@@H]1C [Example I-1067] | > 10000 | 50 to 500 | > 500
CC(=O)N1c2ccc(-c3cnn(C4CC4)c3)cc2N(C(=O)Oc2ccc(-n3cncn3)cc2)C[C@@H]1C [Example I-1194] | 100 to 1000 | 50 to 500 | 100 to 500

Structure (SMILES) | IC50 (BRD4 BD1) [nM] | IC50 (BRD4 BD2) [nM] | IC50 (MV4-11 cells) [nM]
CNS(=O)(=O)c1ccc(-c2ccc3c(c2)N(C(=O)C2CCC2)C[C@H](C)N3C(C)=O)cc1 [Example I-1120] | 1000 to 10000 | 50 to 500 | 100 to 500
CC(=O)N1c2ccc(-c3ccc(S(=O)(=O)NC(C)(C)C)cc3)cc2N(C(=O)OC2CCOCC2)C[C@@H]1C [Example I-1266] | 100 to 1000 | 50 to 500 | 100 to 500
CC(=O)N1c2ccc(-c3cccc(S(N)(=O)=O)c3)cc2N(C(=O)C2CC2)C[C@@H]1C [Example I-1039] | 1000 to 10000 | < 50 | 100 to 500
CC(=O)N1c2ccc(-c3cnn(C(C)C)c3)cc2N(C(=O)OC(C)C)C[C@@H]1C [Example I-653] | 100 to 1000 | 50 to 500 | 100 to 500
CC(=O)N1c2ccc(-c3cn(S(=O)(=O)N(C)C)cn3)cc2N(C(=O)c2ccco2)C[C@@H]1C [Example I-410] | 100 to 1000 | < 50 | 100 to 500
COc1ccc(OC(=O)N2C[C@H](C)N(C(C)=O)c3ccc(-c4cnn(C5CC5)c4)cc32)cc1 [Example I-263] | 100 to 1000 | < 50 | 100 to 500
CC(=O)N1c2ccc(-c3cnn(C4CC4)c3)cc2N(C(=O)Oc2ccc(F)cc2)C[C@@H]1C [Example I-261] | 100 to 1000 | < 50 | 100 to 500
CC(=O)N1c2ccc(-c3cccc(S(=O)(=O)N(C)C)c3)cc2N(C(=O)C2CC2)C[C@@H]1C [Example I-1046] | 1000 to 10000 | 50 to 500 | > 500
CCOC(=O)N1C[C@H](C)N(C(C)=O)c2ccc(-c3ccc(S(=O)(=O)C(C)C)cc3)cc21 [Example I-1064] | 1000 to 10000 | 50 to 500 | > 500
CC(=O)N1c2ccc(-c3ccc(S(=O)(=O)NC(C)(C)C)cc3)cc2N(C(=O)OC(C)C)C[C@@H]1C [Example I-1130] | 100 to 1000 | 50 to 500 | 100 to 500
CC(=O)N1c2ccc(-c3cnn(Cc4ccccn4)c3)cc2N(C(=O)OC(C)C)C[C@@H]1C [Example I-120, (S)-isopropyl 4-acetyl-3-methyl-7-(1-(pyridin-2-ylmethyl)-1H-pyrazol-4-yl)-3,4-dihydroquinoxaline-1(2H)-carboxylate] | 100 to 1000 | < 50 | 100 to 500
CC(=O)N1c2ccc(-c3ccc(C(=O)N4CC[C@H](O)C4)cc3)cc2N(C(=O)OC(C)C)C[C@@H]1C [Example I-580] | 100 to 1000 | 50 to 500 | 100 to 500
CC(=O)N1c2ccc(-c3ccc(S(C)(=O)=O)cc3)cc2N(C(=O)c2cc3cc(O)ccc3[nH]2)CC1C (stereo not drawn) [Example I-786] | 1000 to 10000 | 50 to 500 | > 500
CC(=O)N1c2ccc(-c3cnn(C4CC4)c3)cc2N(C(=O)Oc2ccc(C)cc2)C[C@@H]1C [Example I-264] | 100 to 1000 | < 50 | < 100
CC(=O)N1c2ccc(-c3ccc(N4CCCC4=O)cc3)cc2N(C(=O)OC2CCCCC2)C[C@@H]1C [Example I-1267] | 100 to 1000 | 50 to 500 | 100 to 500
CC(=O)N1c2ccc(-c3ccnc(N4CCOCC4)c3)cc2N(C(=O)c2ccco2)C[C@@H]1C [Example I-862] | 100 to 1000 | 50 to 500 | > 500
